Literature values, collected in patent US11066448B2, “Zika as a cell penetrating peptide for delivery to the brain” (priority 2018, dated 2021).

How the values were obtained:
[1] = human plasma; MMAE linked
[2] = enzymatic hydrolysis, doxorubicin release

| Substance | stability relative to hydrazone linker [1] | half-life of cleavage [2] [min] | stability relative to Val-Cit [1] |
| --- | --- | --- | --- |
| valine-citrulline [Val-Cit] | over 100 times | 240 | – |
| Phe-Lys | – | 8 | substantially less stable |
| Val-Lys | – | 9 | – |
